Experimental data from patent US12350260B2 (priority 2019, dated 2025).
Several values for one entry are separate records, joined by “and”; a condition that tells them apart may be missing. Identical values can stand only once.

Columns and labels:
PAR-2 [1] = biological target: T1, PAR-2 (Homo sapiens, UniProt P55085); conditions: cited from earlier work
PAR-2 [2] = biological target: T1, PAR-2; conditions: cited from earlier work; remark: listed apart in the source
sensory neurons = assay type: cell-based, rat
[3] = system: co-cultured sensory neurons and keratinocytes; assay type: cell-based, rat DRG neurons, human keratinocytes
DRG neurons = assay type: cell-based, rat
[4] = system: co-cultured DRG neurons and keratinocytes; assay type: cell-based, rat DRG neurons, human keratinocytes
[5] = system: primary human epidermal keratinocytes; assay type: cell-based
PAR-2 [6] = assay type: cell-based, rat
[7] = not told; cited from earlier work
[8] = in vivo, cited from earlier work

T1 sequence (P55085 26-397): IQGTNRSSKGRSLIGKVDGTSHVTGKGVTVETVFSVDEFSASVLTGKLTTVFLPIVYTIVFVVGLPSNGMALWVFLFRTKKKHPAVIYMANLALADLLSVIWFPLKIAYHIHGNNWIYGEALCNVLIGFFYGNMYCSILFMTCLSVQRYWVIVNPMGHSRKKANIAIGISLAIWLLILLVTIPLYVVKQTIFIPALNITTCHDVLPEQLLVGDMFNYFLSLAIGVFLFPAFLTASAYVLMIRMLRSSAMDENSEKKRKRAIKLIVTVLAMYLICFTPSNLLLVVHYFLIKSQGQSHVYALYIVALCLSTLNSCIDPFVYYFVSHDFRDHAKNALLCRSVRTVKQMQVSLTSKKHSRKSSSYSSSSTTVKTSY

For “2-aminothiazol-4-yl-LIGRL-NH2 ({2‑aminothiazol‑4‑yl}-LIGRL-NH2)”, the “PAR-2 calcium signaling / calcium mobilization” value (PAR-2 [1]) is listed as “inhibit” and the ERK1/2 phosphorylation (PAR-2 [2]) is listed as “inhibit”.
For `COc1ccc(CCN2CCC(Nc3nc4ccccc4n3Cc3ccc(F)cc3)CC2)cc1` [Astemizole], the “PAR-2 calcium signaling / calcium mobilization” value (PAR-2 [1]) is listed as “inhibit” and the ERK1/2 phosphorylation (PAR-2 [2]) is listed as “inhibit”.
For `Cl.Cn1cc(C2=C(c3c4n(c5ccccc35)CCC(CN)C4)C(=O)NC2=O)c2ccccc21` (centres unmarked) [BimX, Bisindolylmaleimide X hydrochloride], the “normalized amplitude values in each phase (FIGS. 9B, 9D, 9F)” value (sensory neurons) was “No significant modification”, the “normalized percentage of cells responding to PbTx-1 with the first peak” value (sensory neurons) was “did not decrease” and the “normalized percentage of cells responding to PbTx-1 with the second peak” value (“normalized percentage … with the second peak” below) (sensory neurons) was 67.7±7.5%. The “PbTx-1-induced SP release with pre-treatment (normalized levels)” value [3] was 37.4±5.9%.
For `COc1ccccc1OCCNCC(O)COc1cccc2[nH]c3ccccc3c12` (centres unmarked) [Carvedilol], the “PAR-2 calcium signaling / calcium mobilization” value (PAR-2 [1]) is listed as “inhibit” and the ERK1/2 phosphorylation (PAR-2 [2]) is listed as “inhibit”.
With `CCC(C)[C@H](NC(=O)[C@H](CC1CCCCC1)NC(=O)c1ccno1)C(=O)N1CCC2(CCc3ccccc32)CC1` (some centres unmarked) [GB83] the “normalized amplitude of the first peak in responding cells (% of P-CTX-2 alone)” value (DRG neurons) was 31.2±4.2%, the “normalized amplitude values of the plateau in responding cells (% of P-CTX-2 alone)” value (DRG neurons) was 50.1±8.7% and the “normalized percentage of cells responding with a second peak (% of P-CTX-2 alone)” value (DRG neurons) was 16.7±4.1%. For the same compound, the “normalized percentage of cells responding with the first peak (% of P-CTX-2 alone)” value (DRG neurons) was 34.5±10.5%, the “normalized percentage of neurons responding with a plateau (compared to P-CTX-2 alone)” value (DRG neurons) was 7.9±3.3% and the “normalized second peak amplitude in responding cells (% of P-CTX-2 alone)” value (DRG neurons) was 27.2±5.0%. The “P-CTX-2-induced SP release, reduced to (% of P-CTX-2 alone)” value [4] was 15.0±7.9%, the “normalized percentage of cells responding to PbTx-1 with the first peak” value (sensory neurons) was 75.7±7.28% and the “normalized percentage of cells responding to PbTx-1 with the plateau” value (from here on “normalized percentage … with the plateau”) (sensory neurons) was 37.7±7.7%. For the same compound, the “normalized percentage … with the second peak” value (sensory neurons) was 48.9±7.38%, the “PbTx-1-induced SP release with pre-treatment (normalized levels)” value [3] was 47±8.2% and the “PbTx-1-induced SP release, decreased to (% of PbTx-1 alone)” value [3] was 40.9±7.4%. For the same compound, the “inhibitory effect on PbTx-1-induced SP release” value [3] was 45.3±6.9% and the “PAR-2 calcium signaling / calcium mobilization” value (PAR-2 [1]) was “inhibit”.
In the case of `CC[C@H](C)[C@H](NC(=O)[C@H](CC1CCCCC1)NC(=O)c1ccno1)C(=O)N1CCC2(CCc3ccccc32)CC1` [GB88], the “PAR-2 calcium signaling / calcium mobilization” value (PAR-2 [1]) is listed as “inhibit”.
With `Cc1c(C(=O)Nc2cccc(C(F)(F)F)c2)cc(-c2ccccc2)n1CCCN1CCOCC1` [HC-067047] the “normalized amplitude values in each phase (FIGS. 9B, 9D, 9F)” value (sensory neurons) was “No significant modification”, the “normalized percentage of cells responding to PbTx-1 with the first peak” value (sensory neurons) was 59.4±11.5% and the “normalized percentage … with the plateau” value (sensory neurons) was 35.0±16.1%. For the same compound, the “normalized percentage … with the second peak” value (sensory neurons) was 35.6±11.5% and the “PbTx-1-induced SP release with pre-treatment (normalized levels)” value [3] was 58.7±14.5% and 41.3±14.5%.
For `CCOC(=O)N1CCC(=C2c3ccc(Cl)cc3CCc3cccnc32)CC1` [Loratadine], the “PAR-2 calcium signaling / calcium mobilization” value (PAR-2 [1]) is listed as “inhibit” and the ERK1/2 phosphorylation (PAR-2 [2]) is listed as “inhibit”.
In the case of `CCc1nn(CCCN2CCN(c3cccc(Cl)c3)CC2)c(=O)n1CCOc1ccccc1` [Nefazodone], the “PAR-2 calcium signaling / calcium mobilization” value (PAR-2 [1]) is listed as “inhibit” and the ERK1/2 phosphorylation (PAR-2 [2]) is listed as “inhibit”.
For `NC1=N[C@H](O)[C@H]2[C@H]3O[C@]4(O)O[C@@H]([C@@H](O)[C@@]2(N1)[C@@H]4O)[C@]3(O)CO` [TTX, Tetrodotoxin], the “normalized amplitude of the first peak in responding cells (% of P-CTX-2 alone)” value (DRG neurons) was 53.6±8.0% and 47.8±7.2%, the “normalized amplitude values of the plateau in responding cells (% of P-CTX-2 alone)” value (DRG neurons) was 53.2±1.3% and 84.8±6.6% and the “normalized percentage of cells responding with the first peak (% of P-CTX-2 alone)” value (DRG neurons) was 34.9±13.4% and 41.6±12.5%. For the same compound, the “normalized second peak amplitude in responding cells (% of P-CTX-2 alone)” value (DRG neurons) was 33.7±3.5% and 61.9±16.1%, the “average ratio of the P-CTX-2-mediated calcium signal (ΔF/F0)” value [5] was 0.34±0.11 and the “decrease of the average ratio of the P-CTX-2-mediated calcium signal” value [5] was “approximately 70%”. The “P-CTX-2-induced SP release, reduced to (% of P-CTX-2 alone)” value [4] was 29.3±7.3% and 53.1±11.3%, the “normalized amplitude of the second peak” value (sensory neurons) was 3.4±3.4% and the “normalized percentage of cells responding to PbTx-1 with the first peak” value (sensory neurons) was 65.20±14.50% and 34.40±21.24%. For the same compound, the “membrane expression of PAR-2” value (PAR-2 [6]) was 95.3±4.9% and 92.7±1.3%.
With `C1CCC[C@H]2CCCN3CC[C@@H](CCCCCC[C@@H]4CCCN5CC[C@@H](CC1)O[C@@H]45)O[C@@H]23` [Xestospongin C] the “normalized amplitude values in each phase (FIGS. 9B, 9D, 9F)” value (sensory neurons) was “No significant modification”, the “normalized percentage of cells responding to PbTx-1 with the first peak” value (sensory neurons) was “did not decrease” and the “normalized percentage … with the second peak” value (sensory neurons) was 62.5±14.7%. For the same compound, the “PbTx-1-induced SP release with pre-treatment (normalized levels)” value [3] was 35.5±9.7%.
For `CC(C)C[C@H](NC(=O)[C@H](Cc1ccccc1)NC(=O)OCc1ccccc1)C(=O)C=O` [Z-FL-COCHO, Cbz-Phe-Leu-COCHO], the “P-CTX-2-induced SP release, reduced to (% of P-CTX-2 alone)” value [4] was 13.1±6.1%, the “normalized percentage of cells responding to PbTx-1 with the first peak” value (sensory neurons) was 48.2±11.1% and the “normalized percentage … with the plateau” value (sensory neurons) was 41.0±13.8%. For the same compound, the “normalized percentage … with the second peak” value (sensory neurons) was 45.2±11.1%, the “PbTx-1-induced SP release, decreased to (% of PbTx-1 alone)” value [3] was 80.4±4.1% and the cell permeability [7] was “poorly cell-permeant”.
For `OC[C@@H](O)[C@@H](O)[C@H](O)[C@H](O)CO` [mannitol], the “effectiveness in severe cases of poisoning supported early” value ([8]; iv) is listed as “effectiveness” and the “effectiveness in non-severe forms of intoxication” value [8] is listed as “not effective”.
